The supplement of paper PMC11208160

Test: recombinant barcode read abundance after kanamycin selection (control-corrected) (log10(CPM+1)); higher = more efficient recombination; sequences stand for … in AGTGCAGAGAAAATCGGCCAGTTTTCTCTGCCTGCAGTCCGCATGCCGT…AGATTTATGCAGCGGACTGCCTTTCTCCCAAAGTGATAAACCGGACAGTATCATGGACCGGTTTTCCCGGTAATCCGTATTTGCAAGGTTGGTTTCACT; site = the 11-nt target
Protocol: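 Pooled E. coli target-specificity screen for the IS621 bridge recombinase. Each library plasmid pairs an 11-nt target (CT core) with a bridge RNA whose target-binding loop (9-nt LTG + 4-nt RTG) is reprogrammed; the rest of the 177-nt WT IS621 bridge RNA scaffold is fixed. The plasmid is co-electroporated with a WT donor plasmid; recombinase is induced with 0.1 mM IPTG and recombinants are selected on kanamycin. Recombinant barcodes are sequenced, converted to CPM, averaged over two biological replicates and corrected by the unselected control CPM. Molecule = full bridge RNA written as DNA: LTG = specificity nt 1-9, RTG = reverse complement of specificity nt 8-11, in the WT scaffold.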
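Also: IS621 recombinase and bridge RNA in Escherichia coli cells.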

Sequence	recombinant barcode read abundance (log10)
ACAGTGTCTTGGGTTCTAACCTGTTGCGG (site ACACTGTCTCC)	0.0611
ACAGTGTCTTGGGTTCTAACCTGTTGCGG (site ACAGTGTCTCC)	2.77
ACAGTGTCTTGGGTTCTAACCTGTTGCGG (site ACATTGTCTCC)	0.324
ACATAAGCTTGGGTTCTAACCTGTTGCTA (site ACATAAGCTTA)	1.11
ACATAAGCTTGGGTTCTAACCTGTTGCTA (site GGCGGCTCTAG)	0.18
ACATAGACTTGGGTTCTAACCTGTTGCGC (site ACAAAGACTGC)	0.084
ACATAGACTTGGGTTCTAACCTGTTGCGC (site ACACAGACTGC)	0.858
ACATAGACTTGGGTTCTAACCTGTTGCGC (site ACAGAGACTGC)	0.168
ACATAGACTTGGGTTCTAACCTGTTGCGC (site ACATAGACTGC)	1.35
ACATAGTCTTGGGTTCTAACCTGTTGCAG (site ACATAGTCTCT)	1.01
ACATAGTCTTGGGTTCTAACCTGTTGCAG (site CCTTAGTCTCT)	0.0322
ACATAGTCTTGGGTTCTAACCTGTTGCTG (site ACATAGTCTCA)	0.71
ACATAGTCTTGGGTTCTAACCTGTTGCTG (site ACTTAGTCTTA)	0.0401
ACATCTCCTTGGGTTCTAACCTGTTGCCT (site ACATCTCCTAG)	0.503
ACATCTCCTTGGGTTCTAACCTGTTGCCT (site CCATCTCCTAG)	0.239
ACATCTCCTTGGGTTCTAACCTGTTGCCT (site GCATCTCCTAG)	0.0778
ACATCTCCTTGGGTTCTAACCTGTTGCCT (site TCATCTCCTAG)	0.0426
ACATGATCTTGGGTTCTAACCTGTTGCCT (site ACAATATCTAG)	0.0106
ACATGATCTTGGGTTCTAACCTGTTGCCT (site ACATGATCTAG)	1.04
ACATTTCCTTGGGTTCTAACCTGTTGCCT (site AAATTTCCTAG)	0.0832
ACATTTCCTTGGGTTCTAACCTGTTGCCT (site ACATTTCCTAG)	0.1

Sequence	recombinant barcode read abundance (log10)
ACATTTCCTTGGGTTCTAACCTGTTGCCT (site AGATTTCCTAG)	0.138
ACATTTCCTTGGGTTCTAACCTGTTGCCT (site ATATTTCCTAG)	0.58
ACCAGAGCTTGGGTTCTAACCTGTTGCCT (site ACAAGAGCTAG)	0.131
ACCAGAGCTTGGGTTCTAACCTGTTGCCT (site ACCAGAGCTAG)	0.823
ACCAGAGCTTGGGTTCTAACCTGTTGCCT (site ACGAGAGCTAG)	0.0525
ACCAGAGCTTGGGTTCTAACCTGTTGCCT (site ACTAGAGCTAG)	0.528
ACCAGGACTTGGGTTCTAACCTGTTGCCG (site ACCAGGACTCG)	1.94
ACCAGGACTTGGGTTCTAACCTGTTGCCG (site GAGCCTCCTAT)	0.091
ACCAGTACTTGGGTTCTAACCTGTTGCCT (site ACCAGTACTAG)	0.0544
ACCAGTACTTGGGTTCTAACCTGTTGCCT (site ACCCGTACTAG)	0.0724
ACCAGTACTTGGGTTCTAACCTGTTGCCT (site ACCGGTACTAG)	0.0115
ACCAGTACTTGGGTTCTAACCTGTTGCCT (site ACCTGTACTAG)	0.664
ACCATCACTTGGGTTCTAACCTGTTGCCT (site ACAAGCACTAG)	0.103
ACCATCACTTGGGTTCTAACCTGTTGCCT (site ACCATCACTAG)	0.79
ACCATGTCTTGGGTTCTAACCTGTTGCGG (site ACCATGTCTCC)	1.96
ACCATGTCTTGGGTTCTAACCTGTTGCGG (site TAGTACACTGT)	0.171
ACCCAAGCTTGGGTTCTAACCTGTTGCCT (site ACCCAAACTAG)	1.14
ACCCAAGCTTGGGTTCTAACCTGTTGCCT (site ACCCAACCTAG)	0.199
ACCCAAGCTTGGGTTCTAACCTGTTGCCT (site ACCCAAGCTAG)	1.57
ACCCAAGCTTGGGTTCTAACCTGTTGCCT (site ACCCAATCTAG)	0.196
ACCCAGCCTTGGGTTCTAACCTGTTGCGT (site ACCCAGCCTAA)	0.534

Sequence	recombinant barcode read abundance (log10)
ACCCAGCCTTGGGTTCTAACCTGTTGCGT (site ACCCAGCCTAC)	3.25
ACCCAGCCTTGGGTTCTAACCTGTTGCGT (site ACCCAGCCTAG)	0.316
ACCCAGCCTTGGGTTCTAACCTGTTGCGT (site ACCCAGCCTAT)	2.22
ACCCAGTCTTGGGTTCTAACCTGTTGCCA (site AACCAGTCTCG)	0.12
ACCCAGTCTTGGGTTCTAACCTGTTGCCA (site ACCCAGTCTTG)	0.961
ACCCATTCTTGGGTTCTAACCTGTTGCGT (site ACCCATTCTAC)	2.29
ACCCATTCTTGGGTTCTAACCTGTTGCGT (site TAGATAACTCA)	0.0317
ACCCCTCCTTGGGTTCTAACCTGTTGCCA (site ACCCCTCCTTG)	1.4
ACCCCTCCTTGGGTTCTAACCTGTTGCCA (site ACGCCTCCTTG)	0.228
ACCCTAACTTGGGTTCTAACCTGTTGCCG (site ACCCTAACTCG)	2.03
ACCCTAACTTGGGTTCTAACCTGTTGCCG (site ACCCTATCTAG)	0.129
ACCCTGGCTTGGGTTCTAACCTGTTGCCT (site ACACTGGCTAG)	0.0738
ACCCTGGCTTGGGTTCTAACCTGTTGCCT (site ACCCTGGCTAG)	0.816
ACCCTGGCTTGGGTTCTAACCTGTTGCCT (site ACGCTGGCTAG)	0.326
ACCCTGGCTTGGGTTCTAACCTGTTGCCT (site ACTCTGGCTAG)	0.205
ACCGACCCTTGGGTTCTAACCTGTTGCCG (site ACCGACCCTCG)	1.47
ACCGACCCTTGGGTTCTAACCTGTTGCCG (site ACCGTCCCTCG)	0.105
ACCGATTCTTGGGTTCTAACCTGTTGCAT (site ACCGATTCTAT)	0.696
ACCGATTCTTGGGTTCTAACCTGTTGCAT (site GCCGATTCTAG)	0.331
ACCGTCCCTTGGGTTCTAACCTGTTGCCG (site ACCGACCCTCG)	0.0364
ACCGTCCCTTGGGTTCTAACCTGTTGCCG (site ACCGTCCCTCG)	0.107

Sequence	recombinant barcode read abundance (log10)
ACCTCAACTTGGGTTCTAACCTGTTGCCT (site ACATCAACTAG)	0.0721
ACCTCAACTTGGGTTCTAACCTGTTGCCT (site ACCTCAACTAG)	0.19
ACCTCAACTTGGGTTCTAACCTGTTGCCT (site ACGTCAACTAG)	0.188
ACCTCAACTTGGGTTCTAACCTGTTGCCT (site ACTTCAACTAG)	0.215
ACCTCTTCTTGGGTTCTAACCTGTTGCTA (site ACCTCTTCTTA)	0.141
ACCTCTTCTTGGGTTCTAACCTGTTGCTA (site CGTCGACCTAT)	0.204
ACCTGACCTTGGGTTCTAACCTGTTGCCT (site ACCTGACCTAG)	1.31
ACCTGACCTTGGGTTCTAACCTGTTGCCT (site ACCTGCCCTAG)	0.0303
ACCTGACCTTGGGTTCTAACCTGTTGCCT (site ACCTGGCCTAG)	0.1
ACCTGACCTTGGGTTCTAACCTGTTGCCT (site ACCTGTCCTAG)	0.0737
ACCTGGCCTTGGGTTCTAACCTGTTGCCT (site ACCTGACCTAG)	0.165
ACCTGGCCTTGGGTTCTAACCTGTTGCCT (site ACCTGCCCTAG)	0.147
ACCTGGCCTTGGGTTCTAACCTGTTGCCT (site ACCTGGCCTAG)	0.412
ACCTGGCCTTGGGTTCTAACCTGTTGCCT (site ACCTGTCCTAG)	0.247
ACCTGGGCTTGGGTTCTAACCTGTTGCCT (site AACTGGGCTAG)	0.0365
ACCTGGGCTTGGGTTCTAACCTGTTGCCT (site ACCTGGGCTAG)	0.0605
ACCTGGGCTTGGGTTCTAACCTGTTGCCT (site AGCTGGGCTAG)	0
ACCTGGGCTTGGGTTCTAACCTGTTGCCT (site ATCTGGGCTAG)	0.12
ACCTTACCTTGGGTTCTAACCTGTTGCGG (site ACCTTACCTAC)	0.37
